In patent US11253497B2, “Use of derivatives of polyunsaturated fatty acids as medicaments” (Lipopharma Therapeutics, S.L., priority 2009, dated 2022):

Key:
[1] = Lamellar-to-hexagonal (HII) transition temperature in DEPE model membranes by Differential Scanning Calorimetry; assay type: physicochemical; conditions: for Temperature of lamellar-to-hexagonal transition: DEPE membranes, DEPE:D-PUFA 10:1 (mol:mol); for Transition temperature (lamellar to HII): DEPE (4 mM), 200 μM compound, series A, control 64.5
Outline: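 Lamellar-to-HII transition temperature of DEPE membranes measured by differential scanning calorimetry, with DEPE:fatty acid at 10:1 mol:mol. Control membranes contained no fatty acid.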

[2] = test system: breast cancer cells MDA-MB-231; test: Growth of breast cancer cells MDA-MB-231; assay type: cell-based; conditions: 72 hours of incubation
Outline: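 Human cancer cells in RPMI 1640 with 10% FBS at 37 °C, 5% CO2, exposed to D-PUFAs or PUFAs, then counted. Breast MDA-MB-231 cells run under the same conditions; values are means of three independent experiments.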

Jurkat cells = test: Human leukaemia (Jurkat cells); assay type: cell-based; conditions: 72 hours
Protocol: (§1) Overall, it may be seen that the series of compounds A and B are the best, so the effectiveness of these series against the development of leukaemia and liver cancer (Tables 9 and 10) was tested.

P19 cells = test: NMDA-induced neuronal death in P19 cells; assay type: cell-based; conditions: for Neuronal death (P19 cells) after treatment with NMDA: NMDA alone 100% death, control without NMDA 0%, negative values = proliferation
[3] = Serum cholesterol, triglycerides and glucose in SHR rats (colorimetric); assay type: in vivo, rat; conditions: 200 mg/kg daily p.o., 28 days, untreated rats 100%
Outline: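 SHR rats dosed p.o. at 200 mg/kg daily for 28 days; serum cholesterol, triglycerides and glucose measured colorimetrically. Values given as percent of untreated control rats, set at 100%.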

Alzh mice = test: Radial maze in animal model of Alzheimer's disease (Alzh mice); assay type: in vivo; conditions: animals with Alzheimer's disease, 20 mg/kg daily po, 3 months
Excerpt: On the vertical axis it is represented the neuronal death (% of control) depending on the fatty acid used (x-axis). The presence of PUFAs induced modest increases in the survival of P19 cells in the presence of NMDA. D-PUFAs induced significant increases in cell survival values, exceeding in more than 200% in the case of 226A1. Since the number of cells in cultures treated cells is higher than in control cells, it may be affirmed that these compounds not only prevent neuronal death induced by NMDA (anti-neurodegenerative) but also are neuroregenerative agents. […] In the Y axis of the left figure it is shown the time taken to complete the exercise and in the vertical Y axis of the right figure the total number of errors made in the implementation of programmed exercise (mean standard error of the mean) (runtime). In both figures, from left to right, it is represented in the X axis the results in healthy mice (control) (first column), in mice with induced Alzheimer and treated with water as vehicle (second column) or in mice treated with the compound 226B1 (third column). Animals with Alzheimer's disease took longer and made more errors than healthy mice, being the differences statistically significant (*, P<0.05).
To test the efficacy of the compounds of the present invention to induce neuroregeneration or inhibit neurodegeneration, an animal model of Alzheimer's disease was used. In this model mice develop neurodegeneration because they express a series of mutant proteins that lead to brain damage (Alzh mice). B6 mice were used as healthy animal controls. Both groups of animals were treated for a period of 3 months with vehicle (water) or with various D-PUFA (20 mg/kg, daily po) since they were an age of 3 months. To determine whether cognitive improvement occurred after treatment, animal behaviour was monitored in the radial maze. The animals are kept on restricted diet to have appetite. In a symmetrical 8-arm radial maze, visual marks were placed to facilitate the orientation of the animal and food (15 mg tablet) was put in four of the arms. The time each animal took to complete the exercise, and the number of errors, were measured using a camera attached to a computer system. In this sense, Alzheimer animals have values about 50% higher than healthy animals, both by the time it takes to perform the exercise and by the number of errors made (FIG. 4B). […] In this regard, the effectiveness of the compound 183B1, 205A1, 205B1, 226A1, 226 V1 was also tested, showing improvements in animals with Alzheimer's disease (times of 98, 92, 93, 86 and 89 seconds, respectively). […]

3T3 cells = test: Percentage of total PUFAs in membranes of 3T3 cells treated with fatty acids (gas chromatography); assay type: cell-based; conditions: 100 μM, 48 hours, mean ± SEM of four measures, control 32.4 ± 2.1
Excerpt: To perform these experiments, membranes were extracted and total fatty acids were obtained by hydrolysis in basic medium. Methanolic bases of these fatty acids were quantified by gas chromatography. The data shown are averages of four independent measures of PUFA's mass divided by the total fatty acids and expressed as a percentage. It is also shown is standard error of the mean.
The control corresponds to a culture without the presence of added natural or synthetic fatty acids. Cells in their natural form present PUFAs in their membranes, but the presence in the medium of the D-PUFA molecules of the invention increases these levels of PUFAs in the cell membrane.

[4] = test system: heterotrimeric Gi1 protein; test: Binding of heterotrimeric Gi1 protein to model membranes (centrifugation, immunoblotting); conditions: phosphatidylcholine:phosphatidylethanolamine (6:4) 2 mM phospholipid, 0.1 μM D-PUFA; control 100 ± 5; in % (unit assumed)
Excerpt: The net result is a regulation of cell signalling leading to the reversal of various pathological processes, as shown later. […] The Control is a sample of model membranes in the absence of fatty acids.

HepG2 cells = test: Liver cancer (HepG2 cells); assay type: cell-based; conditions: 72 hours
Protocol: These charts show the antitumor efficacy of the compounds of this invention against the growth of breast cancer cells, brain (glioma), and lung cancer. […] The other experimental conditions are identical to those described in the preceding paragraph.
as §1

SMILES | Temperature of lamellar-to-hexagonal transition [1] [°C] | IC50 [2] [µM] | IC50 (Jurkat cells) [µM] | Neuronal death (P19 cells) after treatment with NMDA (P19 cells) [%] | Cholesterol in serum (top number) [3] [%] | Glucose in serum (bottom number) [3] [%] | Triglycerides in serum (central number) [3] [%] | Time to complete the radial maze exercise (Alzh mice) [s] | Percentage of total PUFA (3T3 cells) [%] | Transition temperature (lamellar to HII) [1] [°C] | G protein binding [4] | IC50 (HepG2 cells) [µM] | Increase in cell survival in the presence of NMDA (FIG. 4A) (P19 cells; P19 cells) | IC50 ([2]; Homo sapiens, MDA-MB-231) [µM] | IC50 (Jurkat cells; Homo sapiens, Jurkat) [µM] | IC50 (HepG2 cells; Homo sapiens, HepG2) [µM]
CCC=CCC=CCC=CCCCCCCC(O)C(=O)[O-].[Na+] (stereo not drawn) [183B1] | 51.9 | 267 | 196 | −58 | 75 | 84 | 66 | 98 | – | – | – | – | – | – | – | –
CCC=CCC=CCC=CCC=CCC=CCC=CCC(O)C(=O)O (stereo not drawn) [226A1] | – | 187 | 85 | −230 | 64 | 79 | 71 | 86 | 48.9 ± 3.7 | 44.4 | 422 ± 26 | 164 | more than 200% | – | – | –
CCC=CCC=CCC=CCC=CCC=CCCC(O)C(=O)O (stereo not drawn) [205A1, 2-hydroxy-5,8,11,14,17-eicosapentaenoic acid] | – | – | – | −50 | 69 | 82 | 74 | 92 | 46.7 ± 3.4 | 47.9 | 406 ± 14 | – | – | 390 | 376 | 401
CCC=CCC=CCC=CCC=CCC=CCCC(O)C(=O)[O-].[Na+] (stereo not drawn) [205B1] | 48.3 | 208 | 294 | −52 | 58 | 87 | 65 | 93 | – | – | – | – | – | – | – | –
